Data: patent US20200061018A1, “METHODS AND COMPOSITIONS FOR TREATING PARKINSON'S DISEASE” (Cove Bio LLC, priority 2016, published 2020)

Test system: patient with Parkinson's disease, positive for Malassezia infection
Assay: Example 3: Parkinson's patient positive for Malassezia infection given intravenous amphotericin B deoxycholate plus intranasal saline irrigation
Assay type: in vivo, human
Settings: i.v. 1.0 mg/kg/day for 3 weeks in combination with intranasal aqueous saline solution, follow-up 6 months after the course
Experimental: A patient is clinically evaluated by a physician for deterioration of health because of their progression of symptoms of Parkinson's disease which include tremor, speech dysfunction, aberrant personality changes, abulia, and difficulties with mentation. Patient has no overt symptoms of Malassezia infection. […] Patient is treated with an intravenous administration of a commercially available amphotericin formulation of amphotericin B deoxycholate at 1.0 mg/kg/day in combination with a twice daily treatment regimen of intranasal aqueous saline solution. The solution comprises a mixture of 1 teaspoon of baking soda, 1.5 teaspoons of salt, and 1 quart sterilized distilled water. The solution is administered intranasally using a pulsating irrigation device. The pulsating irrigation device sends a gentle pulse of the solution into the nose via a nasal irrigation tip that can reach into and contact with the upper nasal passages. The amphotericin B treatment regimen is discontinued after 3 weeks. The total amount of amphotericin B administered to the patient over the course of treatment is about 1.8 grams. The nasal wash is continued to be administered to the patient indefinitely on a once daily basis. Routine follow-up is conducted by the physician 6 months after completion of the amphotericin B treatment course.

Question: amphotericin B deoxycholate was tested. Which “caregiver report of symptoms” value did it give?
Answer: improved mood, improved affect, decreased fatigue, decreased abulia, and improved mentation

Question: What about the “progression of Parkinson's disease measured with the MDS-UPDRS” value (person) of the same substance?
Answer: halted
